Reference: patent US5510353A, “Certain aminoguanidine compounds, pharmaceutical compositions containing them and their use in treating gastrointestinal motility disorders and disorders associated with cephalic pain” (Sandoz Ltd., priority 1991, dated 1996)

Tests used:
[1] = tested on: small intestine of Beagle dogs; assay: Myoelectric activity of the small intestine in Beagle dogs (implanted electrodes); type: in vivo; conditions: Canis lupus familiaris, sc, read-out: threshold dose for stimulating myoelectric activity
Experimental: Monopolar electrodes are implanted on the serosal side of the gut wall along the small intestine of Beagle dogs. From these electrodes, signals are fed into a preamplifier and filtered for the registration of low and high frequency potentials, in order to separate slow waves from spikes. The number of spike bursts occuring in 2 min. periods are determined. From this the following data are extracted: duration of phase I--III, interval between 2 consecutive phase III blocks, and propagation velocity. One or two cycles are recorded prior to drug administration which is done subcutaneously 10-15 min after a Phase III has passed the most distal electrodes. Control experiments are performed routinely by means of solvent administration. In fed dogs, the number of spikes per 30 min. is determined additionally. In this test the compounds of the invention stimulate myoelectric activity at dosages of the order of from about 0.001 to 10 mg/kg s.c.

[2] = tested on: isolated guinea-pig ileum; assay: Peristaltic reflex in the isolated guinea-pig ileum; type: cell-based; conditions: Cavia porcellus, 0.25 h, 15 min contact, read-out: pEC50 value, stimulatory effect on the peristaltic activity (converted)
Experimental: Furthermore, the stimulatory effect on gastrointestinal motility of compounds of the invention is also indicated e.g. by their effects on the peristaltic reflex in the isolated guinea-pig ileum.
Male guinea-pigs, 200-400 g are stunned and bled. Segments of terminal ileum, 4-5 cm long, are removed and suspended as described by Trendelenburg in Arch. Exp. Path. Pharmakol., 81, 55-129 (1917), in a 20 ml organ bath under an initial load of 1 g. The tissue is bathed with a modified Krebs solution (NaCl 118.6; CaCl2 2.7; KCl 4.7; KH2 PO4 1.2; MgSO4 0.1; NaHCO3 25.0; and glucose 5.6 mM), maintained at 37° C. and bubbled with 5% CO2 in oxygen. Peristalsis is elicited for 30 s by increasing the intraluminal pressure from zero by 1 to 4 cm H2 O. Measurements are made of longitudinal muscle responses by using an isotonic force-displacement transducer and of circular muscle activity by employing a pressure transducer. The area under the curve (AUG) of peristaltic contractions is determined and concentration response curves are established by plotting the AUC representing the circular and longitudinal muscle activity. Each preparation is used as its own control, taking the peristaltic activity before the administration of the compounds to be tested as 100%. Compounds to be tested are added to the serosal side and are left in contact with the tissue for 15 min. In this test compounds of the invention have a stimulatory effect on the peristaltic activity at concentrations of the order of from about 10^-10 M to 10^-7 M.

[3] = target: 5HT-1D receptors; assay: Binding affinity to 5HT-1D receptors (Waeber et al.); conditions: 5HT-1D receptor binding
Source text: Compounds of the invention also have an agonist effect on 5HT-1D receptors. Their binding affinity to 5HT-1D receptors has been determined e.g. according to the method disclosed by C. Waeber et al., Naunyn-Schmiedeberg,s Arch. Pharmacol., 337, 595-601 (1988).

[4] = tested on: 5-HT1D receptor; assay: Contraction of pig anterior cerebral artery segments (5-HT1D mediated); type: cell-based; conditions: vascular contraction, ketanserin 10^-7 M present
Experimental: Anterior cerebral arteries are excised from pig brains obtained from the local slaughterhouse. Circular segments of 3-4 mm length are mounted between two L-shaped metal prongs and placed in temperature-controlled (37° C.) organ baths filled with Krebs solution that is continuously gassed with 5% CO2 in oxygen. Agonist-induced vascular contractions are measured isometrically. In order to measure only 5-HT1D receptor mediated effects, ketanserin (10^-7 M), which prevents contractions via 5-HT2 receptors, is added to the bath solution. Compounds of the invention induce vascular contractions at a concentration of from 10^-10 to 10^-5 M, particularly 10^-9 to 10^-7 M. In this test, it has been determined that compound of Example 63 has a pD2 value of 9.0.

[5] = target: T1, 5-HT4 receptors (Cavia porcellus, UniProt O70528); assay: Antagonism of 5-HT-induced contraction, longitudinal muscle strip of guinea pig ileum (5-HT4); type: cell-based; conditions: methysergide 0.1 μM present, read-out: pA2 value (converted)
T1 construct: The isolated longitudinal muscle of the guinea pig ileum with its adhering myenteric plexus; from tissue; host or cells: guinea pig ileum longitudinal muscle strip with adhering myenteric plexus
Source text: The isolated longitudinal muscle of the guinea pig ileum with its adhering myenteric plexus is a well established model which permits investigations of the mechanism of action of various neurotransmitters.
Male guinea pigs (200-400 g) are killed by a blow on the head and exsanguinated. A length of small intestine is removed about 2 cm from the ileo-caecal valve. The ileum is stretched over a glass rod and the mesentery is carefully removed. By strocking tangentially away from the mesenteric attachment with a wad of cotton wool, the longitudinal muscle layer is separated and stripped from the underlying circular muscle. Longitudinal muscle strips, 3-4cm length, are mounted in a 10 ml organ bath containing Tyrode solution at 37° C. and bubbled with a 5% carbon dioxide in oxygen. The Tyrode solution is of the following composition (mmol/1): NaCl 137.0; CaCl2 1.8; KCl 2.7; MgCl2 1.05; NaHCO3 11.9; NaHPO4 0.4; glucose 5.6; and methysergide 0.1 μM. The strips are maintained under a resting tension of 500 mg. Contractions are recorded with an isotonic pendulum lever. After equilibration for 30 min a set concentration of carbachol is applied in 10 min intervals until a consistent reaction is achieved.
Non-cumulative concentration-response curves for 5-HT are established by adding increasing concentrations of the agonist to the organ bath at intervals of at least 15 min. […] Each concentration is left in contact with the tissue for 1 min. Each strip is only used to record two concentration-response curves; the first for 5-HT alone and the second for 5-HT in the presence of a set concentration of antagonist, each strip thus serving as its own control. Antagonists are allowed to preequilibrate for at least 10 min prior to addition of 5-HT. The contractions expressed as percentage of the maximal response to 5-HT obtained from several preparations are plotted as mean values in order to obtain log-concentration-response curves. Inhibition constants are expressed in the form of pA2 values which are graphically determined according to conventional methods (Arunlakshana et al, 1959, McKay 1978). […]

T1 sequence (O70528 whole entry): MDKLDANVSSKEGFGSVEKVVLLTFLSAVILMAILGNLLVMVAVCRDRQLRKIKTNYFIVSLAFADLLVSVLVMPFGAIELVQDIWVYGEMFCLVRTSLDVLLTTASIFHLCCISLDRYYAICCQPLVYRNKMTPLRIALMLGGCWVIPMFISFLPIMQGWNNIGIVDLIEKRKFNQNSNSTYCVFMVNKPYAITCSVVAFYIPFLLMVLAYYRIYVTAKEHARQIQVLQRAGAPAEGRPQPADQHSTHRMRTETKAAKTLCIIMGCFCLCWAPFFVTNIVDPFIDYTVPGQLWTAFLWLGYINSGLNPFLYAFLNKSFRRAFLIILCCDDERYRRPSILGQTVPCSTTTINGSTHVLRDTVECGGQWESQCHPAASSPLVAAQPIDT

Row | EC50 [2] [nM] | Kb [5] [nM] | Structure (SMILES) | also measured
1 | > 100 | – | COc1cc(N)c(Cl)cc1C(=O)NC1CCN(CCCOc2ccc(F)cc2)CC1OC (stereo not shown) [Cisapride, reference compound] | minimal effective dose [1]: 0.3 mg/kg
2 | – | 10 | CCCCCNC(=N)NN=Cc1cn(CC)c2ccc(O)cc12 [Example 90] | –
3 | – | 5.01 | CCCCCN(C)C(=N)NN=Cc1c[nH]c2c(C)cc(O)cc12 [Example 97] | –

Further lines, the compound ahead of its results:

Row | Structure (SMILES) | EC50 [2] [nM] | Kb [5] [nM] | also measured
4 | CCCCCNC(=N)NN=Cc1c[nH]c2ccc(OC)cc12 [Example 13] | 1 | – | minimal effective dose [1]: 0.03 mg/kg
5 | CCCCCNC(=N)NN=Cc1c[nH]c2ccc(C(N)=O)cc12 [Example 63] | – | – | pKD value [3]: 8.55; pD2 value [4]: 9.0
6 | CCCCCNC(=N)NN=Cc1c[nH]c2c(C)cc(O)cc12 [Example 89] | – | 7.94 | –
7 | CCN(CC)CCNC(=O)c1cc(Cl)c(N)cc1OC [metoclopramide] | 2000 | – | –
